# Measurements: patent publication US20150105252A1, “SUBSTITUTED PYRAZOLES AS HERBICIDES” (E I DU PONT DE NEMOURS AND COMPANY, priority 2013, published 2015)
# Experiments:
# [1] = system: barnyardgrass; assay: Test A preemergence; format: in vivo, Echinochloa crus-galli; conditions: preemergence
# Outline: (§1)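 Ratings express plant response from 0 (no effect) to 100 (complete control), judged visually against untreated controls after approximately 10 days in the greenhouse. Preemergence applications were made as directed soil sprays onto seeded loam–sand mix, and postemergence applications onto 2–10 cm plants at one- to two-leaf stage.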
# [2] = system: pigweed; assay: Test A preemergence; format: in vivo, Amaranthus retroflexus; conditions: preemergence
# Outline: as §1
# [3] = system: velvetleaf; assay: Test A preemergence; format: in vivo, Abutilon theophrasti; conditions: preemergence
# Outline: as §1
# [4] = system: pigweed; assay: Test A postemergence; format: in vivo, Amaranthus retroflexus
# Outline: as §1
# [5] = system: velvetleaf; assay: Test A postemergence; format: in vivo, Abutilon theophrasti
# Outline: as §1
# [6] = system: blackgrass; assay: Test C preemergence; format: in vivo, Alopecurus myosuroides; conditions: for Plant response rating (scale of 0 to 100), Blackgrass: Preemergence, 250 g ai/ha
# Outline: (§2)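 Seeds were sown in a loam soil–sand blend and sprayed preemergence with compounds formulated in a non-phytotoxic solvent mixture containing surfactant. Postemergence plants, grown in peat/vermiculite medium to 2–18 cm (1- to 4-leaf stage), received the same formulation. After 13 to 15 days in a greenhouse, injury was rated visually against controls (0 = no effect, 100 = complete control).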
# [7] = system: wheat; assay: Test C preemergence; format: in vivo, Triticum aestivum; conditions: for Plant response rating (scale of 0 to 100), Wheat: Preemergence, 250 g ai/ha
# Outline: as §2
# [8] = system: foxtail, giant; assay: Test C preemergence; format: in vivo, Setaria faberii; conditions: for Plant response rating (scale of 0 to 100), Foxtail, Giant: Preemergence, 250 g ai/ha
# Outline: as §2
# [9] = system: johnsongrass; assay: Test C preemergence; format: in vivo, Sorghum halepense; conditions: for Plant response rating (scale of 0 to 100), Johnsongrass: Preemergence, 250 g ai/ha
# Outline: as §2
# [10] = system: ragweed; assay: Test C preemergence; format: in vivo, Ambrosia elation; conditions: for Plant response rating (scale of 0 to 100), Ragweed: Preemergence, 250 g ai/ha
# Outline: as §2
# [11] = system: soybean; assay: Test C preemergence; format: in vivo, Glycine max; conditions: for Plant response rating (scale of 0 to 100), Soybean: Preemergence, 250 g ai/ha
# Outline: as §2
# [12] = system: oilseed rape; assay: Test C preemergence; format: in vivo, Brassica napus; conditions: for Plant response rating (scale of 0 to 100), Oilseed Rape: Preemergence, 250 g ai/ha
# Outline: as §2
# [13] = system: corn; assay: Test C postemergence; format: in vivo, Zea mays; conditions: for Plant response rating (scale of 0 to 100 where 0 is no effect and 100 is complete control), Corn: Postemergence, 31 g ai/ha, visually evaluated after 13 to 15 days; for Corn plant response rating / Plant response rating, Corn: postemergence; for Corn plant response rating: 62 g ai/ha, scale 0 to 100
# Outline: as §2
# [14] = system: johnsongrass; assay: Test C postemergence; format: in vivo, Sorghum halepense; conditions: for Plant response rating (scale of 0 to 100 where 0 is no effect and 100 is complete control), Johnsongrass: Postemergence, 31 g ai/ha, visually evaluated after 13 to 15 days; for Johnsongrass plant response rating / Plant response rating, Johnsongrass: postemergence; for Johnsongrass plant response rating: 62 g ai/ha, scale 0 to 100
# Outline: as §2
# [15] = system: lambsquarters; assay: Test C postemergence; format: in vivo, Chenopodium album; conditions: for Plant response rating (scale of 0 to 100 where 0 is no effect and 100 is complete control), Lambsquarters: Postemergence, 31 g ai/ha, visually evaluated after 13 to 15 days; for Lambsquarters plant response rating / Plant response rating, Lambsquarters: postemergence; for Lambsquarters plant response rating: 62 g ai/ha, scale 0 to 100
# Outline: as §2
# [16] = system: waterhemp; assay: Test C postemergence; format: in vivo, Amaranthus rudis; conditions: for Plant response rating (scale of 0 to 100 where 0 is no effect and 100 is complete control), Waterhemp: Postemergence, 31 g ai/ha, visually evaluated after 13 to 15 days; for Waterhemp plant response rating / Plant response rating, Waterhemp: postemergence; for Waterhemp plant response rating: 62 g ai/ha, scale 0 to 100
# Outline: as §2
# [17] = 125 g ai/ha, visual injury, 0 to 100 scale, approx. 10 days
# [18] = 500 g ai/ha, visual injury after approx. 10 days, 0 to 100 scale (0 no effect, 100 complete control)
# [19] = Postemergence, 500 g ai/ha, 0 to 100 scale (0 no effect, 100 complete control)
# [20] = postemergence, 125 g ai/ha, about 10 days, visual rating on 0 to 100 scale (0 no effect, 100 complete control)
# [21] = preemergence, 31 g ai/ha, visual rating, scale 0 to 100 (0 no effect, 100 complete control), 13 to 15 days
# [22] = preemergence, 62 g ai/ha, scale 0 to 100 (0 no effect, 100 complete control), 13 to 15 days
# [23] = preemergence, 125 g ai/ha, 13 to 15 days, scale 0 to 100, 0 = no effect, 100 = complete control
# [24] = 250 g ai/ha, scale 0 to 100 (0 no effect, 100 complete control)
# [25] = 125 g ai/ha, scale 0 to 100, 0 no effect, 100 complete control
# [26] = Postemergence, 500 g ai/ha, visual rating after approx. 10 days, 0 to 100 scale (0 no effect, 100 complete control)
# [27] = preemergence, 125 g ai/ha, scale 0 to 100, 0 is no effect, 100 is complete control
compound,measurement,setting,value
CCONC(=O)c1cc(CC)n(Cc2ccnc(OC(F)F)c2)n1 [Compound 131],Barnyardgrass plant response rating,[1]; [17],100
same,Barnyardgrass plant response rating,[1]; [18],100
same,Pigweed plant response rating,[2]; [17],100
same,Pigweed plant response rating,[2]; [18],100
same,Velvetleaf plant response rating,[3]; [17],90
same,Velvetleaf plant response rating,[3]; [18],100
same,Pigweed plant response rating,[4]; [19],100
same,Pigweed plant response rating,[4]; [20],100
same,Velvetleaf plant response rating,[5]; [19],100
same,Velvetleaf plant response rating,[5]; [20],90
same,"Plant response rating (scale of 0 to 100), Blackgrass",[6],98
same,Blackgrass plant response rating,[6]; [21],40
same,Blackgrass plant response rating,[6]; [22],80
same,"Plant response rating, Blackgrass",[6]; [23],95
same,"Plant response rating (scale of 0 to 100), Wheat",[7],95
same,Wheat plant response rating,[7]; [21],45
same,Wheat plant response rating,[7]; [22],85
same,"Plant response rating, Wheat",[7]; [23],50
same,"Plant response rating (scale of 0 to 100), Foxtail, Giant",[8],100
same,"Foxtail, Giant plant response rating",[8]; [21],85
same,"Foxtail, Giant plant response rating",[8]; [22],100
same,"Plant response rating, Foxtail, Giant",[8]; [23],100
same,"Plant response rating (scale of 0 to 100), Johnsongrass",[9],95
same,Johnsongrass plant response rating,[9]; [21],20
same,Johnsongrass plant response rating,[9]; [22],65
same,"Plant response rating, Johnsongrass",[9]; [23],85
same,"Plant response rating (scale of 0 to 100), Ragweed",[10],100
same,Ragweed plant response rating,[10]; [21],75
same,Ragweed plant response rating,[10]; [22],85
same,"Plant response rating, Ragweed",[10]; [23],100
same,"Plant response rating (scale of 0 to 100), Soybean",[11],98
same,Soybean plant response rating,[11]; [21],30
same,Soybean plant response rating,[11]; [22],40
same,"Plant response rating, Soybean",[11]; [23],85
same,"Plant response rating (scale of 0 to 100), Oilseed Rape",[12],100
same,Oilseed Rape plant response rating,[12]; [21],95
same,Oilseed Rape plant response rating,[12]; [22],100
same,"Plant response rating, Oilseed Rape",[12]; [23],98
same,"Plant response rating (scale of 0 to 100 where 0 is no effect and 100 is complete control), Corn",[13],5
same,Corn plant response rating,[13],5
same,"Plant response rating, Corn",[13]; [24],50
same,"Plant response rating, Corn",[13]; [25],5
same,"Plant response rating (scale of 0 to 100 where 0 is no effect and 100 is complete control), Johnsongrass",[14],0
same,Johnsongrass plant response rating,[14],0
same,"Plant response rating, Johnsongrass",[14]; [24],10
same,"Plant response rating, Johnsongrass",[14]; [25],0
same,"Plant response rating (scale of 0 to 100 where 0 is no effect and 100 is complete control), Lambsquarters",[15],15
same,Lambsquarters plant response rating,[15],40
same,"Plant response rating, Lambsquarters",[15]; [24],85
same,"Plant response rating, Lambsquarters",[15]; [25],65
same,"Plant response rating (scale of 0 to 100 where 0 is no effect and 100 is complete control), Waterhemp",[16],55
same,Waterhemp plant response rating,[16],55
same,"Plant response rating, Waterhemp",[16]; [24],80
same,"Plant response rating, Waterhemp",[16]; [25],65
"CCc1cc(C(=O)NCC(F)(F)F)nn1Cc1cc(C(F)(F)F)nn1C [Compound 108, 5-ethyl-1-[[1-methyl-3-(trifluoromethyl)-1H-pyrazole-5-yl]methyl]-N-(2,2,2-trifluoroethyl)-1H-pyrazole-3-carboxamide]",Barnyardgrass plant response rating,[1]; [17],90
same,Barnyardgrass plant response rating,[1]; [18],100
same,Pigweed plant response rating,[2]; [17],100
same,Pigweed plant response rating,[2]; [18],100
same,Velvetleaf plant response rating,[3]; [17],60
same,Velvetleaf plant response rating,[3]; [18],100
same,Pigweed plant response rating,[4]; [26],100
same,Pigweed plant response rating,[4]; [20],90
same,Velvetleaf plant response rating,[5]; [26],100
same,Velvetleaf plant response rating,[5]; [20],60
same,"Plant response rating (scale of 0 to 100), Blackgrass",[6],100
same,Blackgrass plant response rating,[6]; [21],100
same,Blackgrass plant response rating,[6]; [22],100
same,Blackgrass plant response rating,[6]; [27],100
same,"Plant response rating (scale of 0 to 100), Wheat",[7],70
same,Wheat plant response rating,[7]; [21],10
same,Wheat plant response rating,[7]; [22],10
same,Wheat plant response rating,[7]; [27],60
same,"Plant response rating (scale of 0 to 100), Foxtail, Giant",[8],100
same,"Foxtail, Giant plant response rating",[8]; [21],100
same,"Foxtail, Giant plant response rating",[8]; [22],100
same,"Foxtail, Giant plant response rating",[8]; [27],100
same,"Plant response rating (scale of 0 to 100), Johnsongrass",[9],100
same,Johnsongrass plant response rating,[9]; [21],35
same,Johnsongrass plant response rating,[9]; [22],90
same,Johnsongrass plant response rating,[9]; [27],100
same,"Plant response rating (scale of 0 to 100), Ragweed",[10],100
same,Ragweed plant response rating,[10]; [21],95
same,Ragweed plant response rating,[10]; [22],95
same,Ragweed plant response rating,[10]; [27],95
same,"Plant response rating (scale of 0 to 100), Soybean",[11],98
same,Soybean plant response rating,[11]; [21],20
same,Soybean plant response rating,[11]; [22],90
same,Soybean plant response rating,[11]; [27],95
same,"Plant response rating (scale of 0 to 100), Oilseed Rape",[12],100
same,Oilseed Rape plant response rating,[12]; [21],90
same,Oilseed Rape plant response rating,[12]; [22],98
same,Oilseed Rape plant response rating,[12]; [27],100
same,"Plant response rating (scale of 0 to 100 where 0 is no effect and 100 is complete control), Corn",[13],5
same,Corn plant response rating,[13],5
same,"Plant response rating, Corn",[13]; [24],35
same,"Plant response rating, Corn",[13]; [25],15
same,"Plant response rating (scale of 0 to 100 where 0 is no effect and 100 is complete control), Johnsongrass",[14],0
same,Johnsongrass plant response rating,[14],0
same,"Plant response rating, Johnsongrass",[14]; [24],5
same,"Plant response rating, Johnsongrass",[14]; [25],0
same,"Plant response rating (scale of 0 to 100 where 0 is no effect and 100 is complete control), Lambsquarters",[15],60
same,Lambsquarters plant response rating,[15],60
same,"Plant response rating, Lambsquarters",[15]; [24],85
same,"Plant response rating, Lambsquarters",[15]; [25],80
same,"Plant response rating (scale of 0 to 100 where 0 is no effect and 100 is complete control), Waterhemp",[16],5
same,Waterhemp plant response rating,[16],50
same,"Plant response rating, Waterhemp",[16]; [24],80
same,"Plant response rating, Waterhemp",[16]; [25],50
